Data: patent US20240148821A1, “PHARMACEUTICAL USE OF CYCLIC PEPTIDE COMPOUND” (CHUGAI SEIYAKU KABUSHIKI KAISHA, priority 2021, published 2024)
Bridge positions count the residues as written; N and C are the ends. Square brackets hold non-standard residues; d marks the D form. Peptide text beside a SMILES is read from it. * marks the point of attachment. hPhe(3-Cl-4-CF3) = N[C@@H](CCc1ccc(C(F)(F)F)c(Cl)c1)C(=O)O; NMePhe(4-Cl) = CN[C@@H](Cc1ccc(Cl)cc1)C(=O)O; NMePhe(2-CN) = CN[C@@H](Cc1ccccc1C#N)C(=O)O; NMePhe(4-Me) = CN[C@@H](Cc1ccc(C)cc1)C(=O)O; NMePhe(3-F) = CN[C@@H](Cc1cccc(F)c1)C(=O)O; NMeGly(cPent) = CN[C@H](C(=O)O)C1CCCC1; Phe(3-I) = N[C@@H](Cc1cccc(I)c1)C(=O)O; NMeGly(cBu) = CN[C@H](C(=O)O)C1CCC1; NMeCha = CN[C@@H](CC1CCCCC1)C(=O)O; NMeChg = CN[C@H](C(=O)O)C1CCCCC1; NMeI = CC[C@H](C)[C@H](NC)C(=O)O; NMeD = CN[C@@H](CC(=O)O)C(=O)O; NMeL = CN[C@@H](CC(C)C)C(=O)O; NMeV = CN[C@H](C(=O)O)C(C)C; d(β3hA) = C[C@@H](N)CC(=O)O; NMeS = CN[C@@H](CO)C(=O)O; hSer = N[C@@H](CCO)C(=O)O; NMeA = CN[C@@H](C)C(=O)O; Nle = CCCC[C@H](N)C(=O)O; Piperidide = C1CCN(*)CC1; Ac5c = NC1(C(=O)O)CCCC1; Aze = O=C(O)[C@@H]1CCN1; X113 = Fc1cncc(C*)c1; Sar = CNCC(=O)O

Tested on: Human pancreatic cancer cell line AsPC-1 (G12D mutation Kras)
Test: AsPC-1 cell growth inhibition (AsPC-1 CGI)
Assay type: cell-based
Conditions: read-out: AsPC-1 cell growth inhibition, 50% growth inhibitory concentration (IC50 value); 96 hours, CellTiter-Glo, values classified in ranges
Protocol: Test compounds were serially dilated with dimethyl sulfoxide, and 200 nL was then dispensed to a U-bottom 96-well plate using Labcyte Echo. […] The cell suspension was dispensed to a. plate containing a test compound at 100 μL per well and incubated at 37° C. in a 5% carbon dioxide gas incubator. 96 hours later, 80 μL of CellTiter-Glo (Promega) was added to each well and fluorescence was measured.

SMILES	IC50 [nM]
CC[C@H](C)[C@@H]1NC(=O)[C@H](CC(C)C)N(C)C(=O)C[C@@H](C(=O)N(C)C)N(C)C(=O)[C@H]([C@@H](C)CC)N(C)C(=O)[C@H](C(C)C)NC(=O)[C@@H](C)NC(=O)[C@H](CCc2ccc(C(F)(F)F)c(Cl)c2)NC(=O)CN(C)C(=O)[C@H](Cc2ccc(C)cc2)N(C)C(=O)[C@@H]2CCN2C(=O)[C@H](C)N(C)C1=O [Compound 915] ([NMeL]I[NMeA][Aze][NMePhe(4-Me)][Sar][hPhe(3-Cl-4-CF3)][dA]V[NMeI][NMeD]-NMe2; lactam N-11)	> 500
CC[C@H](C)[C@@H]1NC(=O)[C@H](CC(C)C)N(C)C(=O)C[C@@H](C(=O)N2CCCCC2)N(C)C(=O)[C@H](C2CCCCC2)N(C)C(=O)[C@@H](C)NC(=O)[C@@H]2CCCN2C(=O)[C@H](CCc2ccc(C(F)(F)F)c(Cl)c2)NC(=O)CN(C)C(=O)[C@H](CC2CCCCC2)N(C)C(=O)CN(C)C(=O)CN(C)C1=O [Compound 917] ([NMeL]I[Sar][Sar][NMeCha][Sar][hPhe(3-Cl-4-CF3)]P[dA][NMeChg][NMeD]-Piperidide; lactam N-11)	> 500
CC[C@H](C)[C@@H]1NC(=O)[C@H](CC(C)C)N(C)C(=O)C[C@@H](C)NC(=O)[C@H](C2CCCC2)N(C)C(=O)[C@H](C(C)C)NC(=O)[C@@H]2CCCN2C(=O)[C@H](CCc2ccc(C(F)(F)F)c(Cl)c2)NC(=O)CN(C)C(=O)[C@H](Cc2ccc(C)cc2)N(C)C(=O)[C@@H]2CCN2C(=O)[C@H](C)N(C)C1=O [Compound 933] (cyclo([Aze][NMePhe(4-Me)][Sar][hPhe(3-Cl-4-CF3)]PV[NMeGly(cPent)][d(β3hA)][NMeL]I[NMeA]))	> 500
CCCC[C@@H]1NC(=O)[C@H](Cc2cccc(I)c2)NC(=O)CN(C)C(=O)[C@H](Cc2ccc(Cl)cc2)N(C)C(=O)CN(C)C(=O)CN(C)C(=O)[C@H]([C@@H](C)CC)NC(=O)[C@H](CC(C)C)N(C)C(=O)C[C@@H](C(=O)N2CCCCC2)N(C)C(=O)[C@H](CC(C)C)NC(=O)[C@H](Cc2ccc(Cl)cc2)N(C)C1=O [Compound 934] ([NMeL]I[Sar][Sar][NMePhe(4-Cl)][Sar][Phe(3-I)][Nle][NMePhe(4-Cl)]L[NMeD]-Piperidide; lactam N-11)	> 500
CC[C@H](C)[C@@H]1NC(=O)[C@H](CC(C)C)N(C)C(=O)C[C@@H](C(=O)N2CCCCC2)N(C)C(=O)[C@H](C(C)C)N(C)C(=O)C2(CCCC2)NC(=O)[C@@H]2CCCN2C(=O)[C@H](CCc2ccc(C(F)(F)F)c(Cl)c2)NC(=O)CN(C)C(=O)[C@H](Cc2ccccc2C#N)N(C)C(=O)CN(C)C(=O)CN(C)C1=O [Compound 935] ([NMeL]I[Sar][Sar][NMePhe(2-CN)][Sar][hPhe(3-Cl-4-CF3)]P[Ac5c][NMeV][NMeD]-Piperidide; lactam N-11)	> 500
CC[C@H](C)[C@@H]1NC(=O)[C@H](CC(C)C)N(C)C(=O)C[C@@H](C(=O)N2CCCCC2)N(C)C(=O)[C@H](C2CCCCC2)N(C)C(=O)C2(CCCC2)NC(=O)[C@@H]2CCCN2C(=O)[C@H](CCc2ccc(C(F)(F)F)c(Cl)c2)NC(=O)CN(C)C(=O)[C@H](C2CCC2)N(C)C(=O)CN(C)C(=O)CN(C)C1=O [Compound 936] ([NMeL]I[Sar][Sar][NMeGly(cBu)][Sar][hPhe(3-Cl-4-CF3)]P[Ac5c][NMeChg][NMeD]-Piperidide; lactam N-11)	> 500
COCC[C@@H]1NC(=O)[C@H](CC(C)C)N(C)C(=O)C[C@@H](C(=O)N2CCCCC2)N(C)C(=O)[C@H](C2CCCCC2)N(C)C(=O)C2(CCCC2)NC(=O)[C@@H]2CCCN2C(=O)[C@H](CCc2ccc(C(F)(F)F)c(Cl)c2)NC(=O)CN(C)C(=O)[C@H](CC2CCCCC2)N(C)C(=O)CN(C)C(=O)CN(C)C1=O [Compound 941] ([NMeL][hSer](Me)[Sar][Sar][NMeCha][Sar][hPhe(3-Cl-4-CF3)]P[Ac5c][NMeChg][NMeD]-Piperidide; lactam N-11)	> 500
CC[C@H](C)[C@@H]1NC(=O)[C@H](C)N(C)C(=O)C[C@@H](C(=O)N2CCCCC2)N(C)C(=O)[C@H](C(C)C)N(C)C(=O)C2(CCCC2)NC(=O)[C@H](Cc2cccc(F)c2)N(C)C(=O)[C@H](CCc2ccc(C(F)(F)F)c(Cl)c2)NC(=O)CN(C)C(=O)[C@H](CC2CCCCC2)N(C)C(=O)CN(C)C(=O)CN(C)C1=O [Compound 945] ([NMeA]I[Sar][Sar][NMeCha][Sar][hPhe(3-Cl-4-CF3)][NMePhe(3-F)][Ac5c][NMeV][NMeD]-Piperidide; lactam N-11)	> 500
CC[C@H](C)[C@@H]1NC(=O)[C@H](CC(C)C)N(C)C(=O)C[C@@H](C(=O)N2CCCCC2)N(C)C(=O)[C@H](C2CCCCC2)N(C)C(=O)C2(CCCC2)NC(=O)[C@H](COCc2cncc(F)c2)N(C)C(=O)[C@H](CCc2ccc(C(F)(F)F)c(Cl)c2)NC(=O)CN(C)C(=O)[C@H](CC2CCCCC2)N(C)C(=O)CN(C)C(=O)CN(C)C1=O [Compound 950] ([NMeL]I[Sar][Sar][NMeCha][Sar][hPhe(3-Cl-4-CF3)][NMeS](X113)[Ac5c][NMeChg][NMeD]-Piperidide; lactam N-11)	> 500
